From publication PMC4893612 (Scientific Reports, 2016) come the findings set out here.

Assay type in all cases: cell-based
One assay deals with USP14 (Homo sapiens, UniProt P54578). The experiment in a line: Cellular thermal shift assay (CETSA) in OPM-2 cells. Set-up: endogenous in cells; host or cells: OPM-2 multiple myeloma cells. Particulars: 1 hour. The method, then:
For CETSA, the same amount of cells as one sample was treated with required condition and collected as described. Each sample was suspended in PBS supplemented with protease inhibitors after they were washed in PBS. And then these samples were heated at 51, 53, or 55 °C for 3 min. Immediately after heating, tubes were removed and incubated at room temperature for 3 min, and then snap-frozen in liquid nitrogen. Samples were freeze-thawed twice and centrifuged at 20,000 g for 20 min at +4 °C and supernatants were analysed by Western-blotting.

For a further assay, the system named is KMS-11. The assay can be described thus: MTT antiproliferative assay, KMS-11. Particulars: Homo sapiens, 72 hours. How it is done: (§1) Cell viability was monitored by the MTT (3-(4,5-dimethylthiazol-2-yl)-2,5-diphenyltetrazolium bromide) assay. For the MTT assay, cells were suspended at 5 × 10^5 cells/ml, and 100 μl aliquots were dispended into 96-well microtiter plates and exposed to drugs as described using DMSO control. At the end of incubations, 10 μl of a stock solution of 5 mg/ml MTT (3-(4,5-dimethylthiazol-2-yl)-2,5-diphenyltetrazolium bromide), was added into each well, and the plates were incubated 4 hours at 37 °C. Formazan crystals were dissolved with 100 μl of 10% SDS/10 mM HCl solution overnight at 37 °C. Since MTT assays are affected by mitochondrial activity, and since OXPHOS is affected by VLX1570 (unpublished observation), we used the acid phosphatase method[49] to determine cell viability in some experiments. After washing twice with PBS, cells were lysed in 100 μl of 0.1 M sodium acetate, 0,1% Triton X-100, p-nitrophenylphosphate (Pierce Biotechnology Inc, Rockford, IL) and incubated for 90 min at 37 °C. At the end of the incubation, 10 μl NaOH was added to each well and A405 was determined.
A general note: Tetrazolium assays rely on reduction of a dye to a coloured formazan, in cell work by metabolically active cells.

Another assay concerns OPM-2-BZ^R. The assay can be described thus: MTT antiproliferative assay, OPM-2-BZR. As to conditions: Homo sapiens, OPM-2-BZ^R (bortezomib resistant), 72 hours. How it is done: as §1
The subject of the next assay is RPMI8226. The experiment in a line: MTT antiproliferative assay, RPMI8226. Particulars: Homo sapiens, RPMI-8226, 72 hours. How it is done:
as §1

In the next assay the test system is OPM-2. The assay can be described thus: MTT antiproliferative assay, OPM-2. As to conditions: Homo sapiens, 72 hours. The method, then: as §1

USP14, sequence (P54578 whole entry): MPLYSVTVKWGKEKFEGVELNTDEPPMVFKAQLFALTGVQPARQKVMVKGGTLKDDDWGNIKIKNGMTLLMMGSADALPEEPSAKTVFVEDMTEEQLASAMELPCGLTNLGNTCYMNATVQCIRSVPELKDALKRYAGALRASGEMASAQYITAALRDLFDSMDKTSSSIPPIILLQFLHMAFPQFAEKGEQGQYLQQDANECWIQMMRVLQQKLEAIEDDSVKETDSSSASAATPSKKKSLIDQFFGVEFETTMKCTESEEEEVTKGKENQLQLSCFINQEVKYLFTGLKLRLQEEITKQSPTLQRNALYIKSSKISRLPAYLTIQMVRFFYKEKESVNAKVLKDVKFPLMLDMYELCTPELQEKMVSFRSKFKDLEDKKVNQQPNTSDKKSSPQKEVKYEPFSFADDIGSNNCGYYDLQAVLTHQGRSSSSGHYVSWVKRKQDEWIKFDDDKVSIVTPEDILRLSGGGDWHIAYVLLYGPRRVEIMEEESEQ

On to `CCC[C@H](NC(=O)/C(C#N)=C/c1cccc(Br)n1)c1ccccc1` [WP1130, reference compound], for which the “thermostabilization of USP14” value on USP14 (5 μM) is recorded as “induced thermostabilization”.

Broadly, the IC50 is the concentration at which inhibition is half-maximal. For `C=CC(=O)N1C/C(=C\c2ccc([N+](=O)[O-])cc2)C(=O)/C(=C/c2ccc([N+](=O)[O-])cc2)C1` [b-AP15], the IC50 with KMS-11 came to 83 ± 3 nM; with OPM-2-BZ^R, 268 ± 12 nM; in the assay with RPMI8226 it was 150 ± 14 nM; in the assay with OPM-2, 160 ± 3 nM. Besides, at USP14 (1 μM), the “thermostabilization of USP14” value is “induced thermostabilization”.

Turning to `CC(C)C[C@H](NC(=O)[C@H](Cc1ccccc1)NC(=O)c1cnccn1)B(O)O` [bortezomib], the half-inhibitory concentration (IC50) with KMS-11 stood at 67 ± 3 nM; with OPM-2-BZ^R, 204 ± 10 nM; with RPMI8226, 84 ± 5 nM; with OPM-2, 32 ± 1 nM.
